# Data reported in article PMC6155437 (Molecules : A Journal of Synthetic Chemistry and Natural …, 2017).
# Columns and labels:
# CYP2C8 = target: T1, CYP2C8 (Homo sapiens, UniProt P10632); assay: CYP2C8 amodiaquine N-deethylase inhibition and mechanism-based inactivation in human liver microsomes; type: in vitro ADME; conditions: for IC50: Amodiaquine N-deethylase
# T1 construct: tissue Corning Life Sciences; host or cells: pooled human liver microsomes (150 donors)
# T1 sequence (P10632 1-490): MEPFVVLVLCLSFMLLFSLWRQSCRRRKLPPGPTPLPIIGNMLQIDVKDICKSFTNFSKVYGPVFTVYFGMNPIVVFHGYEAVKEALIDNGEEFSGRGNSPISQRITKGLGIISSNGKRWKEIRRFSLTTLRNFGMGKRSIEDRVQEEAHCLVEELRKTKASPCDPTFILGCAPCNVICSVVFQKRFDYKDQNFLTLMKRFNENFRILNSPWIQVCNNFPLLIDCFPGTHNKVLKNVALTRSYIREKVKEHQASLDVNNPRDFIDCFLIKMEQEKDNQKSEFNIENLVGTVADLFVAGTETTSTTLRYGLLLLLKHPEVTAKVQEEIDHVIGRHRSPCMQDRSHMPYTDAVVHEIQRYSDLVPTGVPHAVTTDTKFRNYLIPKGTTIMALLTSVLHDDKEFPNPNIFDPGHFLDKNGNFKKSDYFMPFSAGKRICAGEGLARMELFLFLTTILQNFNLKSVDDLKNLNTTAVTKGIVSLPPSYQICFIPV
# Description: After a 3-min pre-incubation at 37 °C, the reactions were initiated by addition of NADPH and incubation proceeded for 15 min at 37 °C in a shaking water bath. […] The incubation mixtures were centrifuged (13,000× g, 4 min, 4 °C). All assays were performed in triplicate and mean values were used in calculations.
# Each reaction was initiated by adding the seven-CYP probe substrate cocktail.
# The second reaction was terminated after incubation for 10 min by adding 100-µL amounts of ice-cold methanol containing d9-1′-hydroxybufuralol. The incubation mixtures were centrifuged (13,000× g, 4 min, 4 °C), and then 50 µL of each supernatant was diluted with 50 µL of water. Aliquots (5 µL) of the diluted supernatants were analyzed by LC-MS/MS.
# The metabolites formed from CYP substrates were quantified simultaneously by a LC-MS/MS method described previously. The ESI source settings in positive-ion mode for metabolite ionization were: capillary voltage, 4200 V; vaporizer temperature, 350 °C; capillary temperature, 330 °C; sheath gas pressure, 35 psi; and auxiliary gas pressure, 15 psi. Quantification was performed by selected reaction monitoring (SRM) of the [M + H]^+ ion and the related product ion for each metabolite: acetaminophen, 152.1 > 110.3; N-desethylamodiaquine, 328.1 > 283.0; 7-hydroxycoumarin, 163.0 > 107.2; 4-hydroxybupropion, 256.1 > 238.0; 4′-hydroxydiclofenac, 312.0 > 231.1; 4′-hydroxy-mephenytoin; 235.1 > 150.1; 1′-hydroxybufuralol, 278.1 > 186.1; 1′-hydroxymidazolam, 341.9 > 324.0; ^13C2,^15N-acetaminophen 155.1 > 111.2; and d9-1′-hydroxybufuralol, 287.2 > 187.0. Analytical data were processed using Xcalibur software (version 2.1, Thermo Scientific).
# (§1) The apparent kinetic parameters for inhibitory potential (Ki and kinact values) and inhibition mode were estimated from the fitted curves using the Enzyme Kinetics program (ver. 1.1; Systat Software Inc., San Jose, CA, USA).
# UGT1A9 = target: T2, UGT1A9 (Homo sapiens, UniProt O60656); assay: UGT1A9 mycophenolic acid glucuronidation inhibition in human liver microsomes; type: in vitro ADME; conditions: at 50 µM
# T2 construct: pooled human liver microsomes (0.2 mg/mL), 5 mM UDPGA; tissue Corning Life Sciences; host or cells: pooled human liver microsomes (150 donors)
# T2 sequence (O60656 26-530): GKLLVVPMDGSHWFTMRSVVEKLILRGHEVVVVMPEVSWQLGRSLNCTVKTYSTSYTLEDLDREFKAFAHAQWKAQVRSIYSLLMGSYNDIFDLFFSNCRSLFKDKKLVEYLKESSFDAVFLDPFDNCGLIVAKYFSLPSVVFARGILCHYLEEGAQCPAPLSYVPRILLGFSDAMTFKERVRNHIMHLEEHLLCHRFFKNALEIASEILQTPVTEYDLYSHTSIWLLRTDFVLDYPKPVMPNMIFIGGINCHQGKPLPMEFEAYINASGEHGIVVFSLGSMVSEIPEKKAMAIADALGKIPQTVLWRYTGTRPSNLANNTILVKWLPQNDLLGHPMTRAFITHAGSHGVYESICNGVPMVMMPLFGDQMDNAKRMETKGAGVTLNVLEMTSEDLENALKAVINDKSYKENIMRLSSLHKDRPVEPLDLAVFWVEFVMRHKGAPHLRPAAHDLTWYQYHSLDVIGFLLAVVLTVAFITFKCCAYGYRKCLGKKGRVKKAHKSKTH
# Description: After 3 min of pre-incubation at 37 °C, the reactions were initiated by addition of UDPGA; incubation continued for 60 min at 37 °C in a shaking water bath. The reaction was stopped by placing the tubes on ice and adding 50 µL ice-cold acetonitrile containing internal standards (propofol glucuronide for chenodeoxycholic acid 24-acyl-β-glucuronide and mycophenolic acid glucuronide, and meloxicam for SN-38 glucuronide, trifluoperazine glucuronide, N-acetylserotonin β-D-glucuronide, and naloxone 3-β-D-glucuronide). The incubation mixtures were centrifuged (13,000× g, 4 min, 4 °C). All assays were performed in triplicate and average values were used in calculations.
# The metabolites formed from the six UGT cocktail substrates were measured simultaneously using the LC-MS/MS method. The ESI source settings in both positive- and negative-ion modes for metabolite ionization were: capillary voltage, 4200 V; vaporizer temperature, 350 °C; capillary temperature, 330 °C; sheath gas pressure, 35 psi; and auxiliary gas pressure, 15 psi. […] Data were processed using Xcalibur software.
# as §1
compound,measurement,setting,value
"O=C(c1cccc2ccccc12)c1cn(CCCCCF)c2ccccc12 [AM-2201, 1-(5-fluoropentyl-1H-indol-3-yl)-(naphthalene-1-yl)methanone]",Ki,CYP2C8,2.1 µM
same,Inhibition Mode,CYP2C8; CYP2C8 amodiaquine N-deethylation,mechanism-based inhibitor
same,IC50,"CYP2C8; IC50 (μM) No Preincubation, CYP2C8, human liver microsomes, 2.5 μM amodiaquine",53.8 µM
same,IC50,"CYP2C8; IC50 (μM) With Preincubation, CYP2C8, 30 min preincubation with NADPH",6.9 µM
same,inhibition of UGT1A9-catalyzed mycophenolic acid glucuronidation,UGT1A9,negligibly inhibited
